From ChEMBL document CHEMBL1132044, “Synthesis and in vitro and in vivo evaluation of the 2-(6'methoxy-3',4'-dihydro-1'-naphtyl)-4H-3,1-benzoxazin-4-one as a new potent substrate inhibitor of human leukocyte elastase” (Bioorg Med Chem Lett, 1999)

Key:
[1] = target: T1, Neutrophil elastase (Homo sapiens) (UniProt P08246); assay: In vitro inhibitory activity against human leukocyte elastase (HLE), at a concentration of 75 uM
T1 sequence (whole entry): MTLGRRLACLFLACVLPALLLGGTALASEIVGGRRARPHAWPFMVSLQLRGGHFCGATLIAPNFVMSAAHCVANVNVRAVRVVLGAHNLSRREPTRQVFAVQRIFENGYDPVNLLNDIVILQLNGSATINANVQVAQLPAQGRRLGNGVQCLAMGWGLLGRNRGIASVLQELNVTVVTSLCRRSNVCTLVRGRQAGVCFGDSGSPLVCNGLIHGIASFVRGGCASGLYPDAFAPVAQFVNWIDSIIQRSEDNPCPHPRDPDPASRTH

[2] = target: T2, Neutrophil elastase (Homo sapiens, UniProt P08246); assay: In vitro inhibitory activity against human leukocyte elastase (HLE)
T2 sequence (P08246 whole entry): T1 sequence (whole entry)

[3] = target: T1, Neutrophil elastase (Homo sapiens); assay: In vitro inhibitory activity against human leukocyte elastase (HLE), at a concentration of 15 uM
[4] = target: T1, Neutrophil elastase (Homo sapiens); assay: In vitro inhibitory activity against human leukocyte elastase (HLE), at a concentration of 1.5 uM

Row | inhibition [1] | IC50 [2] | inhibition [3] | inhibition [4] | SMILES
1 | 20.8% |  | 12% | 6% | CCOC(=O)C1CCC(c2nc3ccccc3c(=O)o2)=CC1C (centres undefined)
2 | 87% | 7 µM | 64.5% | 23% | O=c1oc(/C2=C/CCCCCC2)nc2ccccc12

The next lines start with the compound.

Row | SMILES | inhibition [1] | IC50 [2] | inhibition [3] | inhibition [4]
3 | O=c1oc(-c2ccco2)nc2ccccc12 | 88.7% | 5.5 µM | 65% | 22.6%
4 | O=c1oc(-c2ccccc2)nc2ccccc12 | 76% | 17 µM | 45.7% | 16.2%
5 | COc1ccc2c(c1)CCC=C2c1nc2ccccc2c(=O)o1 | 99.6% | 0.61 µM | 92.8% | 69.9%
